Measurements taken from US20030073815A1, “Adrenic acid receptor and uses thereof” (priority 2001, published 2003).
“Also recorded” adds a separate entry of the source.

Legend:
PFI-011 = molecular target: T1, PFI-011 (Homo sapiens, UniProt Q8TDT2); experiment: Functional assay measuring intracellular calcium mobilisation (FLIPR); assay type: cell-based; settings: PFI-011-transfected cells compared to mock-transfected cells; Fluo3, FLIPR
T1 construct: expressed in transfected cells
Procedure: 5×10^6 cells of a suitable host cell line, chosen to express a low number of endogenous receptors (e.g. HEK293 or CHO-K1) and engineered to stably express certain Gα proteins (e.g. mouse Gα15 (Wilkie, T. M. et al (1991) Proc. Natl. Acad. Sci. 88, 10049-10053), a chimeric Gql5/Gql5 α-subunit, or human Gα16 (Amatruda, TT 3rd et al (1991) Proc. Natl. Acad. Sci. 88, 5587-5591)), were transiently transfected with 7.5 μg of cDNA encoding PFI-011 in a suitable mammalian cell expression vector, or vector alone, using Lipofectamine Plus® reagent (Gibco BRL) as per the manufacturer's protocol. […]
Fluorescence Imaging Plate Reader (FLIPR®) technology was employed as a means to detect activation of PFI-011 by various potential GPCR agonists.
Cells were transfected as described in Example 3. […] The FLIPR® processing involved reading the fluorescence for all samples for 2 minutes; during this time the fluorescence baseline was determined for 10 seconds. The desired amount of compounds (i.e. potential GPCR agonists) was then automatically transferred to the wells and the fluorescence was continuously monitored for the remainder of the time. […]
Compounds capable of acting as agonists for the receptor were identified by them causing a transient rise in fluorescence, and therefore in intracellular calcium, in the cells.

[1] = tested on: oxygenation of arachidonic acid; settings: cited from earlier work
rabbits = settings: cited from earlier work

T1 sequence (Q8TDT2 whole entry): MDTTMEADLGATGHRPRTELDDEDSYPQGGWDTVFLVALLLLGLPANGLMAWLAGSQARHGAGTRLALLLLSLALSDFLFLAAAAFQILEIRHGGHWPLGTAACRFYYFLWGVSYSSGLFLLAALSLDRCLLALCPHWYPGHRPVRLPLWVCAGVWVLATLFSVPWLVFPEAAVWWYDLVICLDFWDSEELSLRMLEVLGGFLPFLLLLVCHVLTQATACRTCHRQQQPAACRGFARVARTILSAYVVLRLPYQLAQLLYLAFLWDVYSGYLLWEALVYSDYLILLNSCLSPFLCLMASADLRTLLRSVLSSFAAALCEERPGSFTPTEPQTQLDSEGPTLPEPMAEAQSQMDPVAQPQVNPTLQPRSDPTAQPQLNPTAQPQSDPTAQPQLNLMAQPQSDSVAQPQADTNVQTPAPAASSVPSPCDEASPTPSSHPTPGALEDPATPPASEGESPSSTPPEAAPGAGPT

In the case of `CCCCC/C=C\C/C=C\C/C=C\C/C=C\CCCCCC(=O)O` [adrenic acid], the “response of PFI-011-expressing cells (fluorescence change over time, transient rise in intracellular calcium)” value (PFI-011) is given as “response of PFI-011-expressing cells to adrenic acid; also recorded: responds to adrenic acid”, the “oxygenation of arachidonic acid; synthesis of prostaglandins PGF2, PGE2 & PGD2” value [1] is given as “inhibit the oxygenation of arachidonic acid” and the “blood pressure and renal flow” value (rabbits) is given as “reduce blood pressure and renal flow”.
